Assay results as given in patent publication US8680097B2, “Benzothiophene alkanol piperazine derivatives and their use as antidepressant” (CSPC Zhongqi Pharmaceutical Technology (Shijiazhuang) Co. …, priority 2008, dated 2014).
Read-outs that look alike come from different tables or passages of the source.

Assays:
[1] = system: uptake of DA by brain synaptosomes; experiment: [3H]DA reuptake by rat brain synaptosomes; format: biochemical; conditions: for inhibition effect on the uptake of DA: rat corpus striatum synaptosomes, control drugs and tested substances all 0.1 mmol/L (method and b297 say 10 μmol/L), inhibition rate; for inhibition activity on the reuptake of DA (in words): at the concentration of 10 μmol/L
[2] = system: uptake of NA by brain synaptosomes; experiment: [3H]NA reuptake by rat brain synaptosomes; format: biochemical; conditions: at the concentration of 10 μmol/L
[3] = system: uptake of 5-HT by brain synaptosomes; experiment: [3H]5-HT reuptake by rat brain synaptosomes; format: biochemical; conditions: at the concentration of 10 μmol/L
[4] = system: histidine auxotrophic mutant strains of Salmonella TA97, TA98, TA100 and TA102; format: cell-based
Text: 4. Bacterial reverse mutation test for VII-10.
Bacterium: histidine auxotrophic mutant strains of Salmonella TA97, TA98, TA100 and TA102
Experimental method: the method reported in the literature: Maron D M et al: (1983) Mutay Res. 113, 173-216.
Results: The experiment included two parts: −S9 and +S9. […] The other dosages had no bacteriostatic effect for all the strains, with a well growing background. […] Ames test result was negative.

[5] = Forced Swimming Test in Learned Helplessness Experiment; format: in vivo
Text: 2. Results of in vivo antidepression of compound VII-10

mice = experiment: Acute toxicity, LD50 single-fed; format: in vivo; conditions: statistics of Bliss
Description: Initial screening was performed by the method reported in “Modern Pharmacological Experiments Mothods” edited by Zhang Juntian.

Structure (SMILES) | inhibition effect on the uptake of DA [1] | inhibition activity on the reuptake of NA (in words) [2] | inhibition activity on the reuptake of 5-HT (in words) [3] | inhibition activity on the reuptake of DA (in words) [1] | also measured
CC(C(O)c1csc2ccccc12)N1CCN(Cc2ccccc2)CC1 (single isomer, unassigned) [VII-4, N^1-benzyl-N^4-[1-methyl-2-hydroxy-2-(benzo[b]thiophene-3-yl)]ethylpiperazine (threo isomer)] | 14.5 ± 10.0 | – | – | – | –
CC(C(O)c1csc2ccccc12)N1CCN(Cc2ccccc2)CC1 (single isomer, unassigned) [VII-5, N^1-benzyl-N^4-[1-methyl-2-hydroxy-2-(benzo[b]thiophene-3-yl)]ethylpiperazine (erythro isomer)] | 11.4 ± 11.5 | – | – | – | –
Clc1ccc([C@]23CNC[C@H]2C3)cc1Cl [DOV 21947, reference compound] | 104.1 ± 4.2 ^ | – | – | – | –
Cl.OC(CCN1CCN(Cc2ccccc2)CC1)c1csc2ccccc12 (stereo not drawn) [VII-10, N^1-benzyl-N^4-[3-hydroxy-3-(benzo[b]thiophene-3-yl)]propylpiperazine hydrochloride] | 78.0 ± 8.0 | stronger inhibition activity | stronger inhibition activity | stronger inhibition activity | Ames test result ([4]; TA97, TA98, TA100, TA102, −S9 and +S9): negative; dose showing bacteriostatic effect ([4]; TA97 in +S9 test system): 5000 μg per culture dish; dose showing bacteriostatic effect ([4]; TA98 in −S9 test system): 5000 μg per culture dish; number of reverse mutation colonies ([4]; all dosages tested, both −S9 and +S9 test systems): no significant increase; effect on immobility time in swimming (in words) [5]: significantly reduce the immobility time; immobility time ([5]; dosage 6.35 mg/kg): 90.7 ± 46.3 s; immobility time ([5]; dosage 12.7 mg/kg): 87.5 ± 35.7 s; immobility time ([5]; dosage 25.4 mg/kg, hydrochloride): 84 ± 48.9 s; LD50 (mice): 1100 mg/kg
Cl.OC(CCN1CCN(CC=Cc2ccccc2)CC1)c1csc2ccccc12 (stereo not drawn) [VII-11, N^1-cinnamyl-N^4-[3-hydroxy-3-(benzo[b]thiophene-3-yl)]propylpiperazine hydrochloride] | 97.9 ± 1.1 | stronger inhibition activity | stronger inhibition activity | stronger inhibition activity | –
CC(c1ccccc1)N1CCN(CCC(O)c2csc3ccccc23)CC1.Cl (stereo not drawn) [VII-12, N^1-α-phenethyl-N^4-[3-hydroxy-3-(benzo[b]thiophene-3-yl)]propylpiperazine hydrochloride] | 98.0 ± 1.5 | stronger inhibition activity | stronger inhibition activity | stronger inhibition activity | –
Cl.OC(CCN1CCN(C(c2ccccc2)c2ccccc2)CC1)c1csc2ccccc12 (stereo not drawn) [VII-14, N^1-benzhydryl-N^4-[3-hydroxy-3-(benzo[b]thiophene-3-yl)]propylpiperazine hydrochloride] | 87.3 ± 4.3 | stronger inhibition activity | stronger inhibition activity | stronger inhibition activity | –
Cl.OC(CCN1CCN(CCOC(c2ccc(F)cc2)c2ccc(F)cc2)CC1)c1csc2ccccc12 (stereo not drawn) [VII-15] | 102.2 ± 1.3 ^ | stronger inhibition activity | stronger inhibition activity | stronger inhibition activity | –
COc1ccc(C(CN(C)C)C2(O)CCCCC2)cc1 (stereo not drawn) [Venlafaxine, reference compound] | 48.6 ± 4.1 ^ | – | – | – | immobility time ([5]; dosage 4.56 mg/kg): 57.1 ± 37.8 s; immobility time ([5]; dosage 9.12 mg/kg): 77.4 ± 47.2 s; immobility time ([5]; dosage 18.24 mg/kg): 80.8 ± 46.8 s
